In patent US20260062705A1, “TREATMENT FOR OVARIAN CANCER WITH OLIGONUCLEOTIDES TARGETING FIBROBLAST ACTIVATION PROTEIN ALPHA” (UNIVERSITY OF FLORIDA RESEARCH FOUNDATION, INCORPORATED, priority 2022, published 2026):
Where a SMILES comes first, the peptide text is derived from it. The star is where a group is joined. Cbz = O=C(OCc1ccccc1)*; CH2F = FC*

Experiments:
Assay type in all cases: cell-based, human
OVCAR8 cells = experiment: CCK-8 cell viability assay; settings: for effect on cell viability: 100 nM for 4 days, FIG. 4D
Procedure: (§1) Briefly, cells were cultured in 96-well plates and CCK-8 reagent was added to cells. After 2-h incubation at 37° C., absorbance was measured using a Bio-Rad plate reader at 460 nm. In vitro invasion was assayed using Matrigel invasion chamber available from Cell Biolabs Inc (San Diego, CA) according to manufacturer's protocol. Flow cytometry-based cell apoptosis was determined using Dead Cell Apoptosis Kits with Annexin V (Thermo Fisher, Cat #V13242) according to manufacturer's protocol. Lipid raft fractions were prepared using Minute™ Plasma Membrane-Derived Lipid Raft Isolation Kit (Invent Biotechnologies, Plymouth, MN) according to manufacturer's protocol.

HEY cells = experiment: CCK-8 cell viability assay; settings: for effect on cell viability: 100 nM for 4 days, FIG. 4D
Procedure: as §1

[1] = test system: FAP-PRKDC co-localization in OVCAR8 cells; experiment: Confocal immunofluorescence staining of FAP and PRKDC; settings: 5 mM MBC for 1 day, FIG. 6E
Procedure: (§2) Immunofluorescence staining: Cells were plated on coverslips for overnight and then fixed with 4% paraformaldehyde followed by permeabilization with 1% Triton X-100. Cells were washed three times with 1×PBS (Thermo Fisher, Cat #: 10010049). After brief blocking with 1% BSA, cells were incubated with anti-FAP mAb (Cat #sc-65398, Santa Cruz Biotechnology, Santa Cruz, CA) or anti-PRKDC polyclonal antibody (Cat #ab32566, Abcam) for 1 h and then with secondary antibody (Alexa Fluor® 488 and Alexa Fluor® 568) for another hour. Coverslips were mounted on […] using Permount solution (Cat #: P36961, Thermo Fisher) and cell fluorescence staining was viewed with confocal microscopy (Carl Zeiss Vision, LSM510). To locate lipid rafts, recombinant Cholera toxin subunit B conjugated with Alexa Fluor™ 647 (Cat #C34778, Thermo Fisher) was included during incubation with secondary antibody.
(§3) Both FAP and PRKDC have been reported to be present in the lipid rafts with unknown function (13, 14). We investigated whether FAP-PRKDC interaction occurred in lipid rafts. We first isolated lipid fraction from HEY and OVCAR8 cells followed by western blot analysis to detect FAP and PRKDC. As well characterized lipid raft marker caveolin-1, both FAP and PRKDC were readily seen in lipid raft isolates (FIG. 6C). […]

[2] = test system: FAP-PRKDC co-localization in HEY cells; experiment: as above; settings: 5 mM MBC for 1 day, FIG. 6E
Procedure: as §2, §3

Compound | effect on cell viability (OVCAR8 cells; OVCAR8 cells) | effect on cell viability (HEY cells; HEY cells) | other results
Cc1c(-c2c(-c3ccc(F)o3)sc3ncnc(O[C@H](Cc4ccccc4OCc4ccnn4CC(F)(F)F)C(=O)O)c23)ccc(OCCN2CCN(C)CC2)c1Cl [S63845] | much less inhibitory effect | much less inhibitory effect | 
COC(=O)C[C@H](NC(=O)[C@H](C)NC(=O)[C@@H](NC(=O)OCc1ccccc1)C(C)C)C(=O)CF [zVAD] (Cbz-Val-Ala-Asp(OMe)-CH2F) |  |  | effect on FAP shRNA-led cell death (OVCAR8 cells; OVCAR8 cells transduced with FAP shRNA, 10 μM from one day post-infection, total 4 days, FIG. 2E): blocked anti-FAP shRNA-led cell death; effect on FAP shRNA-led cell death (HEY cells; HEY cells transduced with FAP shRNA, 10 μM from one day post-infection, total 4 days, FIG. 2E): blocked anti-FAP shRNA-led cell death
COCCn1c2c([n+](Cc3cnccn3)c1C)C(=O)c1ccccc1C2=O [YM155] | significant decrease in cell viability | significant decrease in cell viability | 
CC(C)[C@H](N)C(=O)N1CCC[C@H]1B(O)O [Alabostat, Talabostat] |  |  | effect on survival (OVCAR8 cells; OVCAR8 cells, 1 mM Batimastat or 1 μM Talabostat alone or in combination, 4 days, FIG. 9): little effect; effect on survival (HEY cells; HEY cells, 1 mM Batimastat or 1 μM Talabostat alone or in combination, 4 days, FIG. 9): little effect
Methyl-beta-cyclodextrin [MBC] |  |  | FAP-PRKDC co-localization after disruption of lipid rafts [1]: undetectable FAP-PRKDC co-localization; FAP-PRKDC co-localization after disruption of lipid rafts [2]: undetectable FAP-PRKDC co-localization
CC[C@H](NC(=O)[C@H](C)NC)C(=O)N1C[C@@H](O)C[C@H]1Cc1c(-c2[nH]c3cc(F)ccc3c2C[C@@H]2C[C@H](O)CN2C(=O)[C@H](CC)NC(=O)[C@H](C)NC)[nH]c2cc(F)ccc12 [Birinapant] | much less inhibitory effect | much less inhibitory effect | 
